Data taken from patent publication US8344028B2, “Gamma-amino-butyric acid derivatives as GABAB receptor ligands” (XenoPort, Inc., priority 2009, dated 2013).
Where a name gives a salt, the structure may show the parent alone.

What was measured:
[1] = target: T1, recombinant human GABABR1a2 (Homo sapiens, UniProt Q9UBS5); experiment: cAMP assay for determining GABAB receptor agonist activity; assay type: cell-based; conditions: cells expressing recombinant human GABABR1a2; read-out: cAMP EC50
T1 construct: expressed in transfected cells; host or cells: HEK cells
T1 sequence (Q9UBS5 15-961 limits assumed): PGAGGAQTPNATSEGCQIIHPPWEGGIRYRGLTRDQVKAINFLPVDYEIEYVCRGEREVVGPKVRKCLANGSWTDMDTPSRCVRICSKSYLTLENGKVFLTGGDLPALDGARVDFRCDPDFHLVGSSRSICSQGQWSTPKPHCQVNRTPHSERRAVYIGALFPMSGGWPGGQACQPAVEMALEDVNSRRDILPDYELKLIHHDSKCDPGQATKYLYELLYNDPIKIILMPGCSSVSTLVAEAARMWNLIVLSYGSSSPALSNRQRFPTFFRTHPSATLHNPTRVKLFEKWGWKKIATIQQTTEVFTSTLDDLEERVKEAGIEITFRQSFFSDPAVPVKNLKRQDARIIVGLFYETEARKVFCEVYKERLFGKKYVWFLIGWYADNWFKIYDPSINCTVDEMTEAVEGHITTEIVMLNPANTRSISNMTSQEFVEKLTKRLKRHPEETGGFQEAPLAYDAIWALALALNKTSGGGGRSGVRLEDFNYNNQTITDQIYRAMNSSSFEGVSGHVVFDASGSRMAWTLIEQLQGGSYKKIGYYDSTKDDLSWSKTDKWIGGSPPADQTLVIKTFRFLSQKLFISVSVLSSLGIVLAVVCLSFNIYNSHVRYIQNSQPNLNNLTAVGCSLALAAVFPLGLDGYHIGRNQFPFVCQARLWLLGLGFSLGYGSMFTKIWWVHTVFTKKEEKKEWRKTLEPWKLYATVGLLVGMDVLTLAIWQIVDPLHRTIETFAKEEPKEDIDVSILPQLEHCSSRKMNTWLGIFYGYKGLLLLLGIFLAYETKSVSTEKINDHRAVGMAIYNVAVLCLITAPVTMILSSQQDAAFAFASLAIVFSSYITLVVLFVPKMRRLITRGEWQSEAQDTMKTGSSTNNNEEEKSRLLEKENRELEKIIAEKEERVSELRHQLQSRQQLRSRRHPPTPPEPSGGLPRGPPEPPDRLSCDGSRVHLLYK
T1 sequence (O75899 42-941 partner): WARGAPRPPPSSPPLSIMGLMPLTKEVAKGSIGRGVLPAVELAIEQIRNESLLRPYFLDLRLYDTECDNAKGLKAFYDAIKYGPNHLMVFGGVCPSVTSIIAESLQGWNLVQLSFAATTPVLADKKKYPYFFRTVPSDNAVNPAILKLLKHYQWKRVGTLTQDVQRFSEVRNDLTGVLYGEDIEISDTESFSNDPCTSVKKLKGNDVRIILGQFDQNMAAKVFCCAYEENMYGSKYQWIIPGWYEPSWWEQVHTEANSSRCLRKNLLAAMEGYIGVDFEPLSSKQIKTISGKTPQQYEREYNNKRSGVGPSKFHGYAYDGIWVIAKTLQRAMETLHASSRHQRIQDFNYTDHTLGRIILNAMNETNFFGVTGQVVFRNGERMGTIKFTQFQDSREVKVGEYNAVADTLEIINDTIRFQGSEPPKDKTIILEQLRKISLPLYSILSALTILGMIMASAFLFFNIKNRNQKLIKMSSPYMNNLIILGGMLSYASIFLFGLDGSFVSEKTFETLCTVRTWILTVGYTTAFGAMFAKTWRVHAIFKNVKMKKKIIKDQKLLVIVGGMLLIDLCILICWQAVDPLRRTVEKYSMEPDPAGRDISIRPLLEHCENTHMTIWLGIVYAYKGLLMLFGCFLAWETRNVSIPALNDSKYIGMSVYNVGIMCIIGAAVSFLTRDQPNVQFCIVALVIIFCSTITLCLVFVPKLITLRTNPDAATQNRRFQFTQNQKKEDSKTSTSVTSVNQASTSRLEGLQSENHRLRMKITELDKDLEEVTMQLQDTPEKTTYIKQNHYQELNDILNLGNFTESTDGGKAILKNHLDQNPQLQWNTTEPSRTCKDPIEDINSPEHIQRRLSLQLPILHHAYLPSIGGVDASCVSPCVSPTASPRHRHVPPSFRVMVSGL
Description: The following procedure was used to determine the level of intracellular cAMP. Recombinant HEK cells expressing the GABAB R1a2 receptor were used in the experiments. cAMP levels were measured using a cAMP XS^+ HitHunter™ Chemiluminescence Assay Kit (90-0075-02, GE Healthcare Biosciences Corp.). Cells were seeded overnight at 5,000 cells per well, in black, clear bottom 96-well plates. The following morning, cells were washed twice with 100 μL PBS per well. Forskolin was weighed out and dissolved in DMSO to a final concentration 100 mM. One-hundred (100) μM forskolin solutions were prepared in PBS with and without test compound at 1-times final concentration. Thirty (30) μL of the test solutions were added to the wells and incubated for 1 h at room temperature. The cAMP concentration was determined according to the protocol described in the cAMP assay kit, maintaining the plate at room temperature and in the dark. Two hours after the final kit reagent was added, the plate bottom was covered with black tape, and the plate read using a 1450 MicroBeta Trilux microplate scintillation and luminescence counter (PerkinElmer, Waltham, Mass.). Each well was read for 6 seconds. The untransformed data was then analyzed.

[2] = target: T1, recombinant human GABABR1a2; experiment: Ca2+ assay for determining GABAB receptor agonist activity; assay type: cell-based; conditions: cells expressing recombinant human GABABR1a2
Description: The following procedure was used to determine the GABAB receptor agonist activity of a compound as reflected by activation of Ca^2+ signaling. HEK TREx cells expressing GABABR1a2 under tetracycline induction control, and Gqi chimeric protein (expressed constitutively), allowing GABABR coupling through the Ca^2+ signaling pathway were used in the experiments.
Cells were seeded in media containing tetracycline overnight at 100,000 cells/well, in black, clear-bottom, 96-well plates. The following morning, cells were washed twice with 100 μL HBSS buffer per well. Fluorescent Ca^2+ indicator dye was prepared using the materials and procedure described in the F362056 Fluo-4 NW Calcium Assay Kit (Invitrogen, Carlsbad, Calif.). Ten (10) mL of kit buffer and 100 μl of kit Probenecid were added to individual kit dye vials, and rolled back and forth several times to dissolve the dye. Cells were then loaded into the dye solution at 50 μL per well. The cells and dye were incubated for 30 min at 37° C., and then incubated for an additional 30 min at room temperature in the dark. Test compounds are dissolved in HBSS buffer at twice final concentration. Duplicate wells were used for each unique condition. Solution containing the test compound was added to the wells using a FLEXStation II (Molecular Devices, Sunnyvale, Calif.). Using the instrument in kinetic mode in which each well was read every 2 sec over a total collection time of 50 sec fluorescence was measured using an excitation wavelength 494 nm and a detection wavelength of 516 nm. A normalized fluorescence value for each well was calculated using the following procedure. The difference in fluorescence at 35 sec (usually representing maximal response) and at 15 sec (a time point prior to addition of test compounds) was calculated, divided by the fluorescence at 15 sec, and the result multiplied by 100. The final value represented the percent increase in fluorescence relative to the fluorescence at 15 sec. Data was analyzed using standard procedures.

[3] = target: T2, GABAB receptor (Rattus norvegicus, UniProt Q9Z0U4); experiment: [3H]CGP54626 rat brain GABAB receptor binding assay; conditions: [3H]CGP54626 rat brain binding assay
T2 construct: from tissue; host or cells: rat cerebral cortex membranes
T2 sequence (Q9Z0U4 20-960): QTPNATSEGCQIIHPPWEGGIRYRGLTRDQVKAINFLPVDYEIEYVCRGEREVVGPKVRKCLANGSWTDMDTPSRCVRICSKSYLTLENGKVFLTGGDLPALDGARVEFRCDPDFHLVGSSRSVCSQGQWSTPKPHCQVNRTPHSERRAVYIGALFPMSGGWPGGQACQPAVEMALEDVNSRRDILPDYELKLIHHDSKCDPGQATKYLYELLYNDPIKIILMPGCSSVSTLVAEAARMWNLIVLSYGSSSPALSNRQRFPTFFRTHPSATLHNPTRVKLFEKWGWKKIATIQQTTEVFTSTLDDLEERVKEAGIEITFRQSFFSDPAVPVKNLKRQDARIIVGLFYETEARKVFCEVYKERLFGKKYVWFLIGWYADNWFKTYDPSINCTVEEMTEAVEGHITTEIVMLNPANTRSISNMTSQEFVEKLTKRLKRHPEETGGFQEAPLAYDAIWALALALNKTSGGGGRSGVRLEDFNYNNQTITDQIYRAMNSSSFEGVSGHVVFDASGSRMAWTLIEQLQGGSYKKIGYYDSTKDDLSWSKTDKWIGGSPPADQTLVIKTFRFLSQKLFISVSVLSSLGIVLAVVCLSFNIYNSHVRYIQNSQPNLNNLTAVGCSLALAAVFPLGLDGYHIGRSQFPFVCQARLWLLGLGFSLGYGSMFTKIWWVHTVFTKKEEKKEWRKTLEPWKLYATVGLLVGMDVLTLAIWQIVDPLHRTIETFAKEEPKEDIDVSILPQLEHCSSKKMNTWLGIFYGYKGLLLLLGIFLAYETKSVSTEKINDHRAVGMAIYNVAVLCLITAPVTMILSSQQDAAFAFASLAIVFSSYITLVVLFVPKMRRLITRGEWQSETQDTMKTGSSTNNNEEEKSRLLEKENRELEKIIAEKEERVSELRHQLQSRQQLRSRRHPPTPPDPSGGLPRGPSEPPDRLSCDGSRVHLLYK
T2 sequence (O88871 41-940 partner): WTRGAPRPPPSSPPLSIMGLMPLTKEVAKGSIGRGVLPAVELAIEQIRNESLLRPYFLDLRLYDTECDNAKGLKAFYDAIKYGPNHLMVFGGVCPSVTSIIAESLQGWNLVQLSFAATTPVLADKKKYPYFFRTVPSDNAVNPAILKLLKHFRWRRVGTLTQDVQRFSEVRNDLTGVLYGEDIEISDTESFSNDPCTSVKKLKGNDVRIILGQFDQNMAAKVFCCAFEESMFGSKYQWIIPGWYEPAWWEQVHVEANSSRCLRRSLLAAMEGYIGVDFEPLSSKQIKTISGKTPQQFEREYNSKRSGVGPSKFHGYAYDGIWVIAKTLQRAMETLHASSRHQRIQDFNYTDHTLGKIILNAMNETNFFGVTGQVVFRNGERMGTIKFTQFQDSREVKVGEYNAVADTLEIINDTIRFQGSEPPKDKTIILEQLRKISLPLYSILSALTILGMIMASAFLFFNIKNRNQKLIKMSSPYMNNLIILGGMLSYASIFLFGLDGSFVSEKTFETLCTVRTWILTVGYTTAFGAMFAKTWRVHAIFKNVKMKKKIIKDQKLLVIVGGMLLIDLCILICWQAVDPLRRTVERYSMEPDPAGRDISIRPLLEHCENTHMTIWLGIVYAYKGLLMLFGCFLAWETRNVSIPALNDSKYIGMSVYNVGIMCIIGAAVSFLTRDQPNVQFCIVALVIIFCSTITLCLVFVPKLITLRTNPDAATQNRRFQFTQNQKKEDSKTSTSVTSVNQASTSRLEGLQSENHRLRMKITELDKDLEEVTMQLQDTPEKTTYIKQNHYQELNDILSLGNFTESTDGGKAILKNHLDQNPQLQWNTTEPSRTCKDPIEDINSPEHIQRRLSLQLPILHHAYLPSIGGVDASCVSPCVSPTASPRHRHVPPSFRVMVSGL
Description: An assay using rat cerebral cortex membranes was used to determine the affinity of GABAB receptor ligands for the GABAB receptor.
An assay buffer of 50 mM Tris pH 7.4 was prepared with 100 μM of isoguvacine, to block GABAA interactions. The assay buffer with isoguvacine was used for dilution of membranes, compounds, and radiolabel.
Rat cerebral cortex membranes were diluted in assay buffer at 1 mg/mL and aliquoted into a 96-well plate at 900 μL/well. Buffer or test compound were added at 20-times final concentration in the buffer at 50 μL/well. Membranes and test compounds or buffer were incubated for 10 min. at room temperature. Radiolableled [S—(R*,R*)]-[3-[[1-(3,4-dichlorophenyl)ethyl]amino]-2-hydroxypropyl](cyclohexylmethyl) phosphinic acid (CGP54626) was then added at 50 μL/well in the buffer at 1-10 nM concentration in 50 μl. The mixture was incubated for 15 min. at room temperature. The assay mixture was filtered using Brandell filtration apparatus and GFB filters, washed twice with 3 mL of 4° C., 50 mM Tris pH 7.4, buffer without isoguvacine. The filters were then dried at room temperature and the dried filters punched out and placed in individual vials. Three (3) mL of scintillation fluid was added to each vial and the radiolabel counted on the scintillation counter. The inverse amount of radiolabel was indicative of binding of a test compound to the GABAB receptor.

[4] = target: GABAB receptor (Homo sapiens, UniProt Q9UBS5); experiment: GABAB receptor agonist or partial agonist activity by binding, electrophysiology, cAMP and/or Ca2+ assay methods (Examples 83-86); assay type: cell-based
Sequence of GABAB receptor (Homo sapiens, UniProt Q9UBS5) (Q9UBS5 20-961): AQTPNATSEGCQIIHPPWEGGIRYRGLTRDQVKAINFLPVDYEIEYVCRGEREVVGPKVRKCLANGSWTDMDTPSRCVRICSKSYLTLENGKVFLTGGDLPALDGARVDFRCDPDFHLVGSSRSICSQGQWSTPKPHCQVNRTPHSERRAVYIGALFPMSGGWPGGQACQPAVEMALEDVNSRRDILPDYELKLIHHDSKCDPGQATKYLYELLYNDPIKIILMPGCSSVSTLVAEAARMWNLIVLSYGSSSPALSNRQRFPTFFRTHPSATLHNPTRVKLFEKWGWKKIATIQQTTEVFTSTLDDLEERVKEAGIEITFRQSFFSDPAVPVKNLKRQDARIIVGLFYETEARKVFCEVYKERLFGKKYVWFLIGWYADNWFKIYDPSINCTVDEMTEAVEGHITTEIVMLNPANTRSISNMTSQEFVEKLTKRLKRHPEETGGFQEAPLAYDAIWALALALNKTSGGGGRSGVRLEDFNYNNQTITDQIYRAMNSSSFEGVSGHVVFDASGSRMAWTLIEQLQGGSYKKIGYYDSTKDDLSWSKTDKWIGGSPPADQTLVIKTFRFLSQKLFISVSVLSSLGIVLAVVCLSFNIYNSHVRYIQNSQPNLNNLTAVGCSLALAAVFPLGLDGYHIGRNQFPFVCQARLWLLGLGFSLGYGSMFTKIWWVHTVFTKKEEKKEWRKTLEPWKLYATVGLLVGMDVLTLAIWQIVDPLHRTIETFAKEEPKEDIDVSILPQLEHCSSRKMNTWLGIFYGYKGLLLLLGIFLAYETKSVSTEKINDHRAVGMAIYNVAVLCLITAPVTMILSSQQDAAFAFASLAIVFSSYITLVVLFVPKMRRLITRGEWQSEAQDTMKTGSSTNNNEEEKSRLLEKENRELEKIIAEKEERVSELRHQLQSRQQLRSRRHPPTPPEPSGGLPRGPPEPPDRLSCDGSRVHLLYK
Sequence of GABAB receptor (Homo sapiens, UniProt Q9UBS5) (O75899 42-941 partner): as the sequence (O75899 42-941 partner) above
Outline: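 Binding: rat cortex membranes in 50 mM Tris pH 7.4 with 100 μM isoguvacine were preincubated 10 min at RT with compound, then radiolabeled CGP54626 (1-10 nM) was added; filtered and scintillation-counted. cAMP: GABAB R1a2 HEK cells, 1 h RT with 100 μM forskolin, chemiluminescence.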

Compound | EC50 [1] [nM] | EC50 [2] [nM] | IC50 [3] [nM] | GABAB receptor agonist or partial agonist activity [4]
NC[C@H](CC(=O)O)c1ccc(Cl)c(-c2cc(C(=O)O)co2)c1 [5-{5-[(1R)-2-amino-1-(carboxymethyl)ethyl]-2-chlorophenyl}furan-3-carboxylic acid hydrochloride] | < 100 | < 700 | < 25000 | –
NC[C@H](CC(=O)O)c1ccc(Cl)c(-c2cc(C(=O)O)cs2)c1 [5-{5-[(1R)-2-amino-1-(carboxymethyl)ethyl]-2-chlorophenyl}thiophene-3-carboxylic acid hydrochloride] | < 100 | < 700 | < 25000 | –
C[C@@H](Oc1cc([C@H](CN)CC(=O)O)ccc1Cl)c1ccncc1 [(3R)-3-[3-((1R)-1-(4-pyridyl)ethoxy)-4-chlorophenyl]-4-aminobutanoic acid hydrochloride] | < 100 | < 700 | < 25000 | –
NC[C@H](CC(=O)O)c1ccc(Cl)c(OCc2cncs2)c1 [(3R)-4-amino-3-[4-chloro-3-(1,3-thiazol-5-ylmethoxy)phenyl]butanoic acid hydrochloride] | < 100 | < 700 | < 25000 | –
NC[C@H](CC(=O)O)c1ccc(Cl)c(OCCc2ccncc2)c1 [(3R)-4-amino-3-[4-chloro-3-(2-(4-pyridyl)ethoxy)phenyl]butanoic acid hydrochloride] | < 100 | < 700 | < 25000 | –
N#Cc1cc(-c2cc([C@H](CN)CC(=O)O)ccc2Cl)cs1 [(3R)-4-amino-3-[4-chloro-3-(5-cyano(3-thienyl))phenyl]butanoic acid hydrochloride] | < 100 | < 700 | < 25000 | –
CN(C)C(=O)c1ccc(-c2cc([C@H](CN)CC(=O)O)ccc2Cl)s1 [(3R)-4-amino-3-{3-[5-(N,N-dimethylcarbamoyl)(2-thienyl)]-4-chlorophenyl}butanoic acid hydrochloride] | < 100 | < 700 | < 25000 | –
Cc1cc(COc2cc([C@H](CN)CC(=O)O)ccc2Cl)ccn1 [(3R)-4-amino-3-{4-chloro-3-[(2-methyl(4-pyridyl))methoxy]phenyl}butanoic acid hydrochloride] | < 100 | < 700 | < 25000 | –
NC[C@H](CC(=O)O)c1ccc(Cl)c(OCc2ccncc2Cl)c1 [(3R)-4-amino-3-{4-chloro-3-[(3-chloro(4-pyridyl))methoxy]phenyl}butanoic acid hydrochloride] | < 100 | < 700 | < 25000 | –
Cl.NC[C@H](CC(=O)O)c1ccc(Cl)c(-c2ccccc2)c1 [Example 39, (3R)-4-Amino-3-(4-chloro-3-phenyl-phenyl)butanoic acid hydrochloride] | – | – | – | agonist or partial agonist activity
CN(C)c1cccc(-c2cc([C@H](CN)CC(=O)O)ccc2Cl)c1.Cl [Example 41, (3R)-4-Amino-3-{3-[3-(dimethylamino)phenyl]-4-chlorophenyl}butanoic acid hydrochloride] | – | – | – | agonist or partial agonist activity
Cl.NC[C@H](CC(=O)O)c1ccc(Cl)c(-c2cccc(CC(=O)O)c2)c1 [Example 43, (3R)-4-Amino-3-{3-[3-(carboxymethyl)phenyl]-4-chlorophenyl}butanoic acid hydrochloride] | – | – | – | agonist or partial agonist activity
Cl.NC[C@H](CC(=O)O)c1ccc(Cl)c(-c2ccc(C(=O)O)cc2Cl)c1 [Example 44, 4-{5-[(1R)-2-Amino-1-(carboxymethyl)ethyl]-2-chlorophenyl}-3-chlorobenzoic acid hydrochloride] | – | – | – | agonist or partial agonist activity
NC[C@H](CC(=O)O)c1ccc(Cl)c(-c2ccc([N+](=O)[O-])cc2)c1 [Example 47, (3R)-4-Amino-3-[4-chloro-3-(4-nitrophenyl)phenyl]butanoic acid hydrochloride] | < 100 | < 700 | < 25000 | –
Cl.NC[C@H](CC(=O)O)c1ccc(Cl)c(-c2cncc(C(=O)O)c2)c1 [Example 48, 5-{5-[(1R)-2-Amino-1-(carboxymethyl)ethyl]-2-chlorophenyl}pyridine-3-carboxylic acid hydrochloride] | – | – | – | agonist or partial agonist activity
Cl.N#Cc1cc(-c2cc([C@H](CN)CC(=O)O)ccc2Cl)ccc1Cl [Example 49, (3R)-4-Amino-3-[4-chloro-3-(4-chloro-3-cyanophenyl)phenyl]butanoic acid hydrochloride] | – | – | – | agonist or partial agonist activity
Cl.NC[C@H](CC(=O)O)c1cccc(-c2cccc(C(=O)O)c2)c1 [Example 51, 3-{3-[(1R)-2-Amino-1-(carboxymethyl)ethyl]phenyl}benzoic acid hydrochloride] | – | – | – | agonist or partial agonist activity
Cl.N#Cc1cccc(-c2cc([C@H](CN)CCO)ccc2Cl)c1 [Example 53, 3-{5-[(1R)-1-(Aminomethyl)-3-hydroxypropyl]-2-chlorophenyl}benzenecarbonitrile hydrochloride] | – | – | – | agonist or partial agonist activity
CS(=O)(=O)c1cccc(-c2cc([C@H](CN)CC(=O)O)ccc2Cl)c1.Cl [Example 54, (3R)-4-Amino-3-{4-chloro-3-[3-(methylsulfonyl)phenyl]phenyl}butanoic acid hydrochloride] | – | – | – | agonist or partial agonist activity
Cl.NC[C@H](CC(=O)O)c1ccc(Cl)c(NCc2ccccn2)c1 [Example 58] | – | – | – | agonist or partial agonist activity
Cn1cncc1CNc1cc([C@H](CN)CC(=O)O)ccc1Cl [Example 59, (3R)-4-Amino-3-(4-chloro-3-{[(1-methylimidazol-5-yl)methyl]amino}phenyl)butanoic acid] | – | – | – | agonist or partial agonist activity
Cl.NC[C@H](CC(=O)O)c1ccc(Cl)c(NCc2ccc(C(=O)O)cc2)c1 [Example 63, 4-[({5-[(1R)-2-Amino-1-(carboxymethyl)ethyl]-2-chlorophenyl}amino)methyl]benzoic acid hydrochloride] | – | – | – | agonist or partial agonist activity
Cl.NC[C@H](CC(=O)O)c1ccc(Cl)c(NCc2ccoc2)c1 [Example 64, (3R)-4-Amino-3-{4-chloro-3-[(3-furylmethyl)amino]phenyl}butanoic acid hydrochloride] | – | – | – | agonist or partial agonist activity
(3R)-4-amino-3-{4-chloro-3-[(2-pyridyl)carbonylamino]phenyl)carbonylamino]phenyl}butanoic acid | – | – | – | agonist or partial agonist activity
